Several values for one entry are separate records, joined by “and”; a condition that tells them apart may be missing. Equal values may be shown once.
How the values were obtained:
Solubility (qualitative) = format: physicochemical
PB1(5) [1] = molecular target: T1, PB1(5) (Homo sapiens, UniProt Q86U86); assay: DSF Tm shift assay, PB1(5) bromodomain; format: binding; conditions: for PB1(5) Tm (Supplementary Table 2): average of three replicates and standard deviation
T1 construct: the fifth bromodomain of PB1 (PB1(5)); made in house
T1 sequence (Q86U86 653-774): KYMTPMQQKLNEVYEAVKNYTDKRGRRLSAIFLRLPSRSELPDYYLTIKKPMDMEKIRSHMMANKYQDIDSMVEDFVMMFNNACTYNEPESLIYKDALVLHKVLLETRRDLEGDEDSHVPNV

CECR2A = molecular target: T2, CECR2A (Homo sapiens, UniProt Q9BXF3); assay: DSF Tm shift assay, CECR2A; format: binding; conditions: single measurement
T2 construct: Bromodomain DSF Tm assays were performed; made in house
T2 sequence (Q9BXF3 434-538 limits assumed): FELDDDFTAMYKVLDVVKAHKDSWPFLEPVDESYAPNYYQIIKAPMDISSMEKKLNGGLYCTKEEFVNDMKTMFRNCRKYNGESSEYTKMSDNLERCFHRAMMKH
Procedure: (§1) Protein Expression and Purification.
(§2) Proteins were cloned, expressed, and purified as previously described.1 […]
(§3) Bromodomain DSF Tm assays were performed using a Mx3005p real-time PCR machine (Agilent) and low profile 96-well PCR plates (AB-0700, Life Technologies). Protein was buffered in 10 mM HEPES, pH 7.5, 500 mM NaCl and assayed at a concentration of 2 µM with 10 µM inhibitor concentration and 1:1000 SyproOrange (Invitrogen). Excitation and emission filters were set to 465 and 590 nm respectively. The temperature was raised by 3 °C per 1 min from 25–95 °C, and fluorescence readers were taken at each interval. Data analysis was carried out as described previously.2
(§4) AlphaScreen Displacement Assay.
(§5) AlphaScreen assays were based on a reported protocol, with minor variations.3 In place of a biotinylated peptide, a biotinylated ligand was used at 25 nM final concentration.
(§6) Isothermal Calorimetry Experiments.
(§7) Calorimetric experiments were performed on a VP-ITC micro-calorimeter (MicroCalTM, LLC Northampton, MA). Protein solutions were buffer exchanged by dialysis into buffer 20 mM Hepes pH 7.5, 150 mM NaCl, and 0.5 mM TCEP. All measurements were carried out at 293.15 K while stirring at 286 rpm. The micro syringe was loaded with protein solutions ranging from […]

BRPF1B = molecular target: T3, BRPF1B (Homo sapiens, UniProt P55201); assay: DSF Tm shift assay, BRPF1B; format: binding; conditions: single measurement
T3 construct: Bromodomain DSF Tm assays were performed; made in house
T3 sequence (P55201 628-732 limits assumed): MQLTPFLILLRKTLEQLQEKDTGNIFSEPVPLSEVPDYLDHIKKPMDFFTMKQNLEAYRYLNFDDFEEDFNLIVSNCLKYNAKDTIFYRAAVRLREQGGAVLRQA
Procedure: as §1, §2, §3, §4, §5, §6, §7

BRD9A = molecular target: T4, BRD9A (Homo sapiens, UniProt Q9H8M2); assay: DSF Tm shift assay, BRD9A; format: binding; conditions: single measurement
T4 construct: Bromodomain DSF Tm assays were performed; made in house
T4 sequence (Q9H8M2 136-240 limits assumed): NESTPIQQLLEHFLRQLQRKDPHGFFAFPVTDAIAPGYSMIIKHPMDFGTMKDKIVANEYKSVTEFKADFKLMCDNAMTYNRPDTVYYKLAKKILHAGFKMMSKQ
Procedure: as §1, §2, §3, §4, §5, §6, §7

[2] = Aqueous stability by 1H NMR in D2O time course; format: physicochemical
Text: Compounds were synthesized by the routes shown in Scheme 1. Amidation of 2-aminobenzamide 2 with 4-chlorobutanoyl chloride[29] gave amide 3, which could be cyclized to the 2,3-dihydropyrrolo[1,2-a]quinazolin-5(1H)-one core 4 using potassium tert-butoxide. The isomer was confirmed on the basis of NOE correlations and subsequent crystallography. The weak nucleophilicity of the core was then exploited by reacting compound 4 with substituted N,N-dialkylformamides using Vilsmeier–Haack conditions, giving analogues incorporating nitrogen-based aliphatic side chains solely as the E regioisomer. This chemistry was unsuitable for piperazine-based formamides. For these side chains, analogues 12–15 were synthesized as single regioisomers by displacement of the dimethylamino group in 5 using cyclic secondary amines and DMAP catalysis. Due to the potential for hydrolysis of the enamine-like moiety, the aqueous stability of 5 was assessed by ^1H NMR in a D2O time course experiment and was stable for >24 h. […] Their binding to PB1(5) was assessed by the operationally simple DSF assay (Table 1). […] Six-membered aliphatic rings (10–14) were better tolerated than analogues containing six-membered aromatic side chains (see Supporting Information), likely due to their greater flexibility. However, expansion to a seven-membered ring reduced activity.

PB1(5) [3] = molecular target: T1, PB1(5); assay: Isothermal calorimetry (ITC), PB1(5) bromodomain; format: binding; conditions: for K × 10^6 (M^–1): 293.15 K
[4] = 10 μM inhibitor, average of three replicates

CECR2A Tm (CECR2A) [°C] | BRPF1B Tm (BRPF1B) [°C] | BRD9A Tm (BRD9A) [°C] | PB1(5) Tm (Supplementary Table 2) (PB1(5) [1]) [°C] | Compound | further results
– | – | – | – | O=c1nc2n(c3ccccc13)CC/C2=C\c1ccoc1 [Compound 1] | aqueous solubility (Solubility (qualitative)): poor
– | – | – | – | O=c1nc2n(c3ccccc13)CCC2 [Compound 4, 2,3-Dihydropyrrolo[1,2-a]quinazolin-5(1H)-one] | PB1(5) ΔTm (PB1(5) [1]; [4]): no interaction; ΔTm at 10 µM (PB1(5) [1]; [4]): 0 °C
0.1 | 0.1 | 0.2 | – | CN(C)/C=C1\CCn2c1nc(=O)c1ccccc12 [Compound 5, (E)-3-((Dimethylamino)methylene)-2,3-dihydropyrrolo[1,2-a]quinazolin-5(1H)-one] | aqueous stability [2]: > 24 h
– | – | – | – | CCCN(/C=C1\CCn2c1nc(=O)c1ccccc12)CCC [Compound 7, (E)-3-((Dipropylamino)methylene)-2,3-dihydropyrrolo[1,2-a]quinazolin-5(1H)-one] | PB1(5) ΔTm (PB1(5) [1]; [4]): moderate activity
– | – | – | – | CC(C)N(/C=C1\CCn2c1nc(=O)c1ccccc12)C(C)C [Compound 8, (E)-3-((Diisopropylamino)methylene)-2,3-dihydropyrrolo[1,2-a]quinazolin-5(1H)-one] | PB1(5) ΔTm (PB1(5) [1]; [4]): loss of binding
0.2 | 0.0 | 1.0 | 4.3 ± 0.4 | O=c1nc2n(c3ccccc13)CC/C2=C\N1CCCC1 [Compound 9, (E)-3-(Pyrrolidin-1-ylmethylene)-2,3-dihydropyrrolo[1,2-a]quinazolin-5(1H)-one] | TΔS (PB1(5) [3]): 4.7 kcal/mol and 4.717 kcal/mol; ΔG (PB1(5) [3]): -7.577 kcal/mol; K × 10^6 (M^–1) (PB1(5) [3]): 0.44 × 10^6 M^–1
0.1 | 0.0 | 0.2 | – | O=c1nc2n(c3ccccc13)CC/C2=C\N1CCCCC1 [Compound 10, (E)-3-(Piperidin-1-ylmethylene)-2,3-dihydropyrrolo[1,2-a]quinazolin-5(1H)-one] | TΔS (PB1(5) [3]): 5.3 kcal/mol and 5.274 kcal/mol; ΔG (PB1(5) [3]): -7.926 kcal/mol; K × 10^6 (M^–1) (PB1(5) [3]): 0.80 × 10^6 M^–1
0.1 | 0.0 | 0.8 | – | O=c1nc2n(c3ccccc13)CC/C2=C\N1CCOCC1 [Compound 11] | –
0.3 | 0.2 | 0.5 | 5.8 ± 0.1 | CN1CCN(/C=C2\CCn3c2nc(=O)c2ccccc23)CC1 [Compound 12] | –
0.1 | 0.0 | 0.8 | 5.0 ± 0.5 | CCN1CCN(/C=C2\CCn3c2nc(=O)c2ccccc23)CC1 [Compound 13] | –
0.1 | 0.2 | 0.7 | 4.7 ± 0.6 | CC(C)(C)OC(=O)N1CCN(/C=C2\CCn3c2nc(=O)c2ccccc23)CC1 [Compound 14] | –
0.0 | 0.2 | 0.0 | 3.5 ± 0.2 | CN1CCCN(/C=C2\CCn3c2nc(=O)c2ccccc23)CC1 [Compound 15] | –
